Assay results as given in patent publication US4988697A, “Fungicidal compositions and method” (Merck & Co., Inc., priority 1989, dated 1991).
≈ marks a conversion by molar mass, not a printed value.

What was measured:
Assay type in all cases: cell-based
[1] = system: C. miyabeamis; test: MIC against fungal panel, C. miyabeamis
Procedure: In a manner similar to that above described for effect against Candida albicans the synergistic effect of the combination of the β-lactone compound and ketoconazole against a fungal panel was determined by plating on potato dextrose agar.
(§1) First the MIC for the β-lactone compound and the MIC for the ketoconazole were determined against an array of organisms. Thereafter, the effects on the MIC of adding 0.031, 0.125, 0.5 and 2 μg/ml of ketoconazole were determined.

[2] = system: C. albicans (Y1055); test: MIC against fungal panel, C. albicans (Y1055)
Procedure: as §1

[3] = system: C. albicans (Y1750); test: MIC against fungal panel, C. albicans (Y1750)
Procedure: as §1

[4] = system: F. oxysporium; test: MIC against fungal panel, F. oxysporium
Procedure: as §1

[5] = system: Candida albicans; test: Synergistic and fungicidal effect on exponential phase cultures (CFU/ml over time); conditions: ketoconazole 1 μg/ml
Procedure: Synergistic and fungicidal effects were determined by treating exponential phase Candida albicans cultures with β-Lactone at MIC and MFC levels and ketoconazole at 0.1 μg/ml or a 1 μg/ml alone or in combination. Exponential phase cultures were prepared by diluting an overnight culture 1:50 or 1:1000 in YNB/G. After incubating the diluted cells 7 or 17 hrs. at 37° C., the exponential phase cells were diluted in YNB/G to A600 =0.0004 u/ml to obtain 3000 cfu/ml.
10 microliters (μl) of β-lactone compound or ketoconazole prepared in DMSO was added to 1 ml of diluted exponential phase cells. The tubes were incubated at 37° C. at 250 rpm for 27 hours. Periodically, aliquots were diluted in 0.9% saline and plated on Sabouraud dextrose agar plates to determine the number of cfu/ml.

[6] = system: U. zeae; test: MIC against fungal panel, U. zeae
Procedure: as §1

[7] = system: A. niger; test: MIC against fungal panel, A. niger
Procedure: as §1

[8] = system: C. neoformans; test: MIC against fungal panel, C. neoformans
Procedure: as §1

[9] = system: Candida albicans MY 1055; test: Minimum Inhibitory Concentration, broth dilution; conditions: MY1055, YNB/G, 37° C., 17 hr
Procedure: 11-(3-hydroxymethyl-4-oxo-2-oxetanyl)-7-methyl-2,4-undecadienoic acid (β-lactone compound), was solubilized in 100 percent dimethylsulfoxide (DMSO). Twofold dilutions were made with DMSO to obtain final drug concentrations in the broth dilution assay tubes ranging from 0.625 to 100 μg/ml.
The Candida albicans, MY 1055, yeast culture maintained in yeast nitrogen base/glucose (1/2 percent), YNB/G, was transferred to fresh medium and incubated 7 hours at 37° with shaking at 250 rpm. After incubation, each culture was diluted to A600 =0.0004 U/ml which was previously determined to be equal to 3000 cfu/ml (colony forming units per milliliter).
1 milliliter of YNB/G inoculated with yeast culture was added to sterile test tubes. The tubes were incubated at 250 rpm, 37° C. for 17 hr. The minimum inhibitory concentrations (MIC) was recorded as the lowest concentration of drug […].

[10] = system: Candida albicans MY 1055; test: Minimum Fungicidal Concentration, plating of MIC tubes; conditions: MY1055, ≥95% reduction of viable cells, 37° C., 17 hours
Procedure: In the manner above described for the determination of minimum inhibitory concentration, broth dilution assay tubes were prepared ranging from 0.625 to 100 μg/ml and 1 milliliter of YNB/G inoculated with Candida albicans MY 1055 sterile test tubes. The tubes were incubated at 250 rpm at 37° C. for 17 hours. The minimum fungicidal concentration (MFC) was determined by serially diluting samples of MIC tubes in 0.9% saline. Aliquots were plated on Sabouraud dextrose agar. The plates were incubated at 37° for 48 hr. and the colonies counted. From the counts obtained, the number of cfu/ml in the undiluted drug-culture tube was calculated. The MFC is defined as the minimum amount of drug required to reduce the number of viable cells initially present in the drug-culture tubes greater than or equal to 95%. The MFC was 10 μg/ml.

[11] = system: Candida albicans MY 1055; test: Effect of Azole Antifungals on the MIC'S of the β-Lactone Compound
Text: The β-lactone compound and the following conazole compounds: cis-1-acetyl-4-[4-[[2-(2,4-dichlorophenyl)-2-1H-imidazole-1-ylmethyl)-1,3- dioxolan-4-yl]-methoxyl]phenyl]piperazine (ketoconazole), α-(2,4-difluorophenyl)-α-(1H-1,4-triazol-1-ylmethyl)1H-1,2-4-triazole-1-ethanol (fluconazole and cis-4-[4-[4-[4-[[2-(2,4-dichlorophenyl)-2-(1H-1,2,4-triazole-1-ylmethyl)-1,3-dioxolan-4-yl]-methoxy] phenyl]-1-piperazinyl]phenyl-2,4-dihydro-2-(1-methylpropyl)-3H-1,2,4-triazol-3-one (itraconazole), were dissolved in DMSO and serially diluted in the manner previously described.
Assay tubes were prepared in a manner similar to that previously described and in operations carried out in a manner similar to that previously described, the effect of various conazole compounds on the MIC of the β-lactone compound were determined.

[12] = read-out: MIC, Ketoconazole Alone
[13] = Candida albicans, read-out: MIC, Ketoconazole Alone
[14] = Table 1, 2 hours, β-lactone 2.5 μg/ml, alone or combined
[15] = Table 1, 4.5 hours, β-lactone 2.5 μg/ml, alone or combined
[16] = Table 1, 7 hours, β-lactone 2.5 μg/ml, alone or combined
[17] = Table 1, 11 hours, β-lactone 2.5 μg/ml, alone or combined
[18] = Table 1, 17 hours, β-lactone 2.5 μg/ml, alone or combined
[19] = Table 1, 22 hours, β-lactone 2.5 μg/ml, alone or combined
[20] = Table 1, 27 hours, β-lactone 2.5 μg/ml, alone or combined
[21] = Table 2, 2 hours, β-lactone 10 μg/ml, alone or combined
[22] = Table 2, 4.5 hours, β-lactone 10 μg/ml, alone or combined
[23] = Table 2, 7 hours, β-lactone 10 μg/ml, alone or combined
[24] = Table 2, 11 hours, β-lactone 10 μg/ml, alone or combined
[25] = Table 2, 17 hours, β-lactone 10 μg/ml, alone or combined
[26] = Table 2, 22 hours, β-lactone 10 μg/ml, alone or combined
[27] = Table 2, 27 hours, β-lactone 10 μg/ml, alone or combined

## CC(=O)N1CCN(c2ccc(OC[C@H]3CO[C@](Cn4ccnc4)(c4ccc(Cl)cc4Cl)O3)cc2)CC1 (relative stereo) [Ketoconazole, cis-1-acetyl-4-[4-[[2-(2,4-dichlorophenyl)-2-(1H-imidazole-1-ylmethyl)-1,3-dioxolan-4-yl]methoxy]-phenyl]piperazine]
[1]; [12]
  MIC: 2 µg/mL
[2]; [13]
  MIC: > 2 µg/mL
[3]; [13]
  MIC: > 2 µg/mL
[4]; [12]
  MIC: > 2 µg/mL
[5]; Table 1, 0 hours
  Fungal Growth: 2.95 × 10^3 CFU/ML
[5]; [14]
  Fungal Growth: 5.1 × 10^3 CFU/ML
[5]; [15]
  Fungal Growth: 1.09 × 10^4 CFU/ML
[5]; [16]
  Fungal Growth: 2.40 × 10^4 CFU/ML
[5]; [17]
  Fungal Growth: 6.90 × 10^4 CFU/ML
[5]; [18]
  Fungal Growth: 1.36 × 10^5 CFU/ML
[5]; [19]
  Fungal Growth: 3.30 × 10^5 CFU/ML
[5]; [20]
  Fungal Growth: 7.20 × 10^5 CFU/ML
[5]; Table 2, 0 hours
  Fungal Growth: 2.95 × 10^3 CFU/ML
[5]; [21]
  Fungal Growth: 5.1 × 10^3 CFU/ML
[5]; [22]
  Fungal Growth: 1.09 × 10^4 CFU/ML
[5]; [23]
  Fungal Growth: 2.40 × 10^4 CFU/ML
[5]; [24]
  Fungal Growth: 6.90 × 10^4 CFU/ML
[5]; [25]
  Fungal Growth: 1.36 × 10^5 CFU/ML
[5]; [26]
  Fungal Growth: 3.30 × 10^5 CFU/ML
[5]; [27]
  Fungal Growth: 7.20 × 10^5 CFU/ML
[6]; [12]
  MIC: > 2 µg/mL
[7]; Aspergillus niger, read-out: MIC, Ketoconazole Alone
  MIC: > 2 µg/mL
[8]; Cryptococcus neoformans, read-out: MIC, Ketoconazole Alone
  MIC: > 2 µg/mL

## CC(=CC(=O)O)C=C(C)CC(C)CCCCC1OC(=O)C1CO (stereo not drawn) [β-Lactone Compound]
[1]; ketoconazole 0 μg/ml
  MIC, β-Lactone Compound in Presence of Ketoconazole: 0.78 µg/mL
[1]; ketoconazole 0.031 μg/ml
  MIC, β-Lactone Compound in Presence of Ketoconazole: 0.39 µg/mL
[1]; ketoconazole 0.123 μg/ml
  MIC, β-Lactone Compound in Presence of Ketoconazole: 0.78 µg/mL
[1]; ketoconazole 2 μg/ml
  MIC, β-Lactone Compound in Presence of Ketoconazole: N.G.
[2]; ketoconazole 0 μg/ml
  MIC, β-Lactone Compound in Presence of Ketoconazole: 3.125 µg/mL
[2]; ketoconazole 0.031 μg/ml
  MIC, β-Lactone Compound in Presence of Ketoconazole: 0.78 µg/mL
[2]; ketoconazole 0.123 μg/ml
  MIC, β-Lactone Compound in Presence of Ketoconazole: 0.78 µg/mL
[2]; ketoconazole 0.5 μg/ml
  MIC, β-Lactone Compound in Presence of Ketoconazole: 0.19 µg/mL
[2]; ketoconazole 2 μg/ml
  MIC, β-Lactone Compound in Presence of Ketoconazole: 0.19 µg/mL
[3]; ketoconazole 0 μg/ml
  MIC, β-Lactone Compound in Presence of Ketoconazole: 3.125 µg/mL
[3]; ketoconazole 0.031 μg/ml
  MIC, β-Lactone Compound in Presence of Ketoconazole: 0.78 µg/mL
[3]; ketoconazole 0.123 μg/ml
  MIC, β-Lactone Compound in Presence of Ketoconazole: 0.195 µg/mL
[3]; ketoconazole 0.5 μg/ml
  MIC, β-Lactone Compound in Presence of Ketoconazole: 0.19 µg/mL
[3]; ketoconazole 2 μg/ml
  MIC, β-Lactone Compound in Presence of Ketoconazole: 0.19 µg/mL
[4]; ketoconazole 0 μg/ml
  MIC, β-Lactone Compound in Presence of Ketoconazole: > 50 µg/mL
[4]; ketoconazole 0.031 μg/ml
  MIC, β-Lactone Compound in Presence of Ketoconazole: > 50 µg/mL
[4]; ketoconazole 0.123 μg/ml
  MIC, β-Lactone Compound in Presence of Ketoconazole: > 50 µg/mL
[4]; ketoconazole 0.5 μg/ml
  MIC, β-Lactone Compound in Presence of Ketoconazole: > 50 µg/mL
[4]; ketoconazole 2 μg/ml
  MIC, β-Lactone Compound in Presence of Ketoconazole: > 50 µg/mL
[5]; [14]
  Fungal Growth: 3.85 × 10^3 CFU/ML
[5]; [15]
  Fungal Growth: 8.80 × 10^3 CFU/ML
[5]; [16]
  Fungal Growth: 1.12 × 10^4 CFU/ML
[5]; [17]
  Fungal Growth: 1.28 × 10^4 CFU/ML
[5]; [18]
  Fungal Growth: 9.35 × 10^3 CFU/ML
[5]; [19]
  Fungal Growth: 1.23 × 10^4 CFU/ML
[5]; [20]
  Fungal Growth: 1.80 × 10^4 CFU/ML
[5]; [21]
  Fungal Growth: 6.50 × 10^3 CFU/ML
[5]; [22]
  Fungal Growth: 7.50 × 10^3 CFU/ML
[5]; [23]
  Fungal Growth: 3.35 × 10^3 CFU/ML
[5]; [24]
  Fungal Growth: 8.70 × 10^2 CFU/ML
[5]; [25]
  Fungal Growth: 5.00 × 10^1 CFU/ML
[5]; [26]
  Fungal Growth: 6.50 × 10^1 CFU/ML
[5]; [27]
  Fungal Growth: 7.50 × 10^1 CFU/ML
[6]; ketoconazole 0 μg/ml
  MIC, β-Lactone Compound in Presence of Ketoconazole: 3.125 µg/mL
[6]; ketoconazole 0.031 μg/ml
  MIC, β-Lactone Compound in Presence of Ketoconazole: 3.125 µg/mL
[6]; ketoconazole 0.123 μg/ml
  MIC, β-Lactone Compound in Presence of Ketoconazole: 0.78 µg/mL
[6]; ketoconazole 0.5 μg/ml
  MIC, β-Lactone Compound in Presence of Ketoconazole: 0.19 µg/mL
[6]; ketoconazole 2 μg/ml
  MIC, β-Lactone Compound in Presence of Ketoconazole: 0.19 µg/mL
[9]
  MIC: 2.5 µg/mL (≈ 7.71 µM)
[7]; ketoconazole 0 μg/ml
  MIC, β-Lactone Compound in Presence of Ketoconazole: > 50 µg/mL
[7]; ketoconazole 0.031 μg/ml
  MIC, β-Lactone Compound in Presence of Ketoconazole: > 50 µg/mL
[7]; ketoconazole 0.123 μg/ml
  MIC, β-Lactone Compound in Presence of Ketoconazole: > 50 µg/mL
[7]; ketoconazole 0.5 μg/ml
  MIC, β-Lactone Compound in Presence of Ketoconazole: > 50 µg/mL
[7]; ketoconazole 2 μg/ml
  MIC, β-Lactone Compound in Presence of Ketoconazole: > 50 µg/mL
[10]
  MFC: 10 µg/mL (≈ 30.8 µM)
[8]; ketoconazole 0 μg/ml
  MIC, β-Lactone Compound in Presence of Ketoconazole: 12.5 µg/mL
[8]; ketoconazole 0.031 μg/ml
  MIC, β-Lactone Compound in Presence of Ketoconazole: 12.5 µg/mL
[8]; ketoconazole 0.123 μg/ml
  MIC, β-Lactone Compound in Presence of Ketoconazole: 3.125 µg/mL
[8]; ketoconazole 0.5 μg/ml
  MIC, β-Lactone Compound in Presence of Ketoconazole: 0.19 µg/mL
[8]; ketoconazole 2 μg/ml
  MIC, β-Lactone Compound in Presence of Ketoconazole: 0.19 µg/mL
[11]; fluconazole 0 μg/ml
  MIC of β-lactone compound: 2.5 µg/mL
[11]; itraconazole 0 μg/ml
  MIC of β-lactone compound: 2.5 µg/mL
[11]; ketoconazole 0 μg/ml
  MIC of β-lactone compound: 2.5 µg/mL
[11]; with fluconazole 0.3125 μg/ml
  MIC of β-lactone compound: 1.25 µg/mL
[11]; with fluconazole 1.25 μg/ml
  MIC of β-lactone compound: 0.625 µg/mL
[11]; with fluconazole 5.0 μg/ml
  MIC of β-lactone compound: 0.625 µg/mL
[11]; with itraconazole 0.3125 μg/ml
  MIC of β-lactone compound: 2.5 µg/mL
[11]; with itraconazole 1.25 μg/ml
  MIC of β-lactone compound: 1.25 µg/mL
[11]; with itraconazole 5.0 μg/ml
  MIC of β-lactone compound: 1.25 µg/mL
[11]; with ketoconazole 0.3125 μg/ml
  MIC of β-lactone compound: 0.625 µg/mL
[11]; with ketoconazole 1.25 μg/ml
  MIC of β-lactone compound: 0.625 µg/mL
[11]; with ketoconazole 5.0 μg/ml
  MIC of β-lactone compound: 0.625 µg/mL
